Drawing on BindingDB's records for patent US10561657 (Centaurus Biophrama, 2020), this text covers IC50 for two compounds.

The target in this assay is Tyrosine-protein kinase JAK2 (Homo sapiens, UniProt O60674). The experiment in a line: Enzymatic Activity Assay. Here is the method: A testing platform for kinase activity of JAK2 (wild type and V617F mutant type) was established based on Homogeneous Time-Resolved Fluorescence (HTRF) assay, and the activities of the compounds were tested using the platform. The compounds were subjected to three-fold gradient dilutions with 100% DMSO with a starting concentration of 1 mM (11 dilutions in total). 4 μL of each dilution was added to 96 μL of reaction buffer (50 mM HEPES, pH 7.4, 10 mM MgCl2, 1 mM EGTA, 0.01% Tween-20, 0.005% BAS, 2 mM DTT) and mixed homogeneously. […] The mixture was mixed homogeneously by centrifugation. […] The plate was incubated in the incubator for 1 hr, and then the fluorescence values were read on Envision (available from PerkinElmer). […] The enzymatic activity was representd by a ratio of the two readout at the two emission wavelengths.
Tyrosine-protein kinase JAK2, sequence (O60674 whole entry): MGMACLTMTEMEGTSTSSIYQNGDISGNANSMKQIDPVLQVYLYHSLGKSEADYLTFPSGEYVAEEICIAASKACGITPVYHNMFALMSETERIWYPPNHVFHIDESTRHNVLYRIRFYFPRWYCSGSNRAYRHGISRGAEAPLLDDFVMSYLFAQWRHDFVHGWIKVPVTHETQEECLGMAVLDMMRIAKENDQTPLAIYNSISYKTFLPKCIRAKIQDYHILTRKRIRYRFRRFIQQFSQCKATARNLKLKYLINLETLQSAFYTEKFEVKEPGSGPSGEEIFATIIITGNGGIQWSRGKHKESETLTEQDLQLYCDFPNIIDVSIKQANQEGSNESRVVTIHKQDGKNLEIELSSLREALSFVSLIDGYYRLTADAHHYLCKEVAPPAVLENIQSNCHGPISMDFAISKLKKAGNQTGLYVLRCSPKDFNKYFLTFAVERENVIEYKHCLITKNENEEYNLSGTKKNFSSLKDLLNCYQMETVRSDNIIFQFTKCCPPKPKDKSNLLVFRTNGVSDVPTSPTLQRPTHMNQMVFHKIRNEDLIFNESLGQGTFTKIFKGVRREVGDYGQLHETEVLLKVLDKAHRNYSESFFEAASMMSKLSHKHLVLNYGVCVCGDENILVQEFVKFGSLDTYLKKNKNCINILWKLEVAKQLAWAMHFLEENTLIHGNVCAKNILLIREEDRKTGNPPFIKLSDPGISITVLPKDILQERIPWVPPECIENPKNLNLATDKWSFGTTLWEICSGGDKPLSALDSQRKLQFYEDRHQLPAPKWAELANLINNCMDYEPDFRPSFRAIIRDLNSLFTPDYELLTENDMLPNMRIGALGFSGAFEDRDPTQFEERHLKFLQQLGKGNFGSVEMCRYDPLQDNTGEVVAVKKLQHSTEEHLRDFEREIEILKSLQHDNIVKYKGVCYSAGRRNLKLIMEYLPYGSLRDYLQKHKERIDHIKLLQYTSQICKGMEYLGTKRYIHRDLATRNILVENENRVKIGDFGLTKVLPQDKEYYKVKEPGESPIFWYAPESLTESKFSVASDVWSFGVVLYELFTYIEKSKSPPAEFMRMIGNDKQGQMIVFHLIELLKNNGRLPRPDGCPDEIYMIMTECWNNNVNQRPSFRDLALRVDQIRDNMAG

The term IC50 denotes the concentration that gives 50% inhibition. Lower therefore signals inhibition by little substance. With `NC(=O)CC(C1CCCC1)n1cc(-c2ncnc3[nH]ccc23)c(N)n1` (configuration not stated) [US10561657, Example 2], the IC50 is under 100 nM. `CS(=O)(=O)Nc1nn(C(CC#N)C2CCCC2)cc1-c1ncnc2[nH]ccc12` (configuration not stated) [US10561657, Example 10] yielded an IC50 of under 20 nM.
